The values that follow come from patent publication US10004701B2, “Methods and compositions for treating infection” (UNIVERSITY OF ROCHESTER, priority 2012, dated 2018).

Where a name gives a salt, the structure may show the parent alone. Read-outs that look alike come from different tables or passages of the source.

What all share (assay): AK assay 384-well format, Prestwick library screening
The test system of one assay is E. cloacae. The format is cell-based, Enterobacter cloacae. The settings on record: Enterobacter cloacae, 3 h, 50 μM final drug concentration.
Another assay concerns E. faecium. Format: cell-based, Enterococcus faecium. Conditions: Enterococcus faecium, 3 h, 50 μM final drug concentration.
Another assay deals with E. coli. Format: cell-based, Escherichia coli. The settings on record: Escherichia coli, 3 h, 50 μM final drug concentration.
In a further assay the test system is P. aeruginosa. The format is cell-based, Pseudomonas aeruginosa. Conditions: Pseudomonas aeruginosa, 3 h, 50 μM final drug concentration.
Assay [1] relates to A. baumannii strain 98-37-09. Format: cell-based, Acinetobacter baumannii. Conditions: Acinetobacter baumannii, 983709, 3 h, 50 μM final drug concentration.
Another assay relates to K. pneumoniae. The format is cell-based, Klebsiella pneumoniae. The settings on record: Klebsiella pneumoniae, 3 h, 50 μM final drug concentration.
Assay [2] deals with S. aureus strain USA300-0114. Format: cell-based, Staphylococcus aureus. Conditions: Staphylococcus aureus, USA300, 3 h, 50 μM final drug concentration.
The mark [3] stands for this setting: planktonic E. cloacae, 384-well, […], read-out: AK-based Prestwick Library Screening Results: E. cloacae (increase in extracellular AK activity).
Setting [4] is: planktonic E. faecium, 384-well, […], read-out: AK-based Prestwick Library Screening Results: E. faecium (increase in extracellular AK activity).
The mark [5] stands for this setting: planktonic E. coli, 384-well, […], read-out: AK-based Prestwick Library Screening Results: E. coli (increase in extracellular AK activity).
[6] abbreviates: planktonic P. aeruginosa, 384-well, […], read-out: AK-based Prestwick Library Screening Results: P. aeruginosa (increase in extracellular AK activity).
Setting [7] is: planktonic A. baumannii, 384-well, […], read-out: AK-based Prestwick Library Screening Results: A. baumannii (increase in extracellular AK activity).
Where [8] appears, read: planktonic K. pneumoniae, 384-well, […], read-out: AK-based Prestwick Library Screening Results: K. pneumoniae (increase in extracellular AK activity).
Setting [9] is: planktonic S. aureus, 384-well, […], read-out: AK-based Prestwick Library Screening Results: S. aureus (increase in extracellular AK activity).

As to `O=C(O)c1ccccc1Nc1cccc(C(F)(F)F)c1` [Flufenamic acid], the fold induction at 50 µM in the assay on E. cloacae (setting [3]) turned out to be 1.8; with E. faecium (setting [4]) it was 1; in the assay with E. coli (setting [5]), 1; in the assay on P. aeruginosa (setting [6]) it was 1.1; in assay [1] (setting [7]), 1.3; in the assay on K. pneumoniae (setting [8]), 1. Moreover, the fold induction at 50 µM in assay [2] (setting [9]) came to 0.5.

On to `CNCCCN1c2ccccc2CCc2ccccc21` [Desipramine hydrochloride], for which the fold induction at 50 µM with E. cloacae (planktonic E. cloacae, cutoff for positive-scoring molecules 3-fold increase, read-out: AK-based Prestwick Library Screening Results, E. cloacae (increase in extracellular AK activity)) is 0.8; in the assay on E. faecium (planktonic E. faecium, cutoff for positive-scoring molecules 3-fold increase, read-out: AK-based Prestwick Library Screening Results, E. faecium (increase in extracellular AK activity)), 0.8; in the assay on E. coli (planktonic E. coli, cutoff for positive-scoring molecules 3-fold increase, read-out: AK-based Prestwick Library Screening Results, E. coli (increase in extracellular AK activity)) it was 0.9; in the assay on P. aeruginosa (planktonic P. aeruginosa, cutoff for positive-scoring molecules 3-fold increase, read-out: AK-based Prestwick Library Screening Results, P. aeruginosa (increase in extracellular AK activity)), 0.9; in assay [1] (planktonic A. baumannii, cutoff for positive-scoring molecules 3-fold increase, read-out: AK-based Prestwick Library Screening Results, A. baumannii (increase in extracellular AK activity)), 0.7; in the assay with K. pneumoniae (planktonic K. pneumoniae, cutoff for positive-scoring molecules 3-fold increase, read-out: AK-based Prestwick Library Screening Results, K. pneumoniae (increase in extracellular AK activity)), 0.7. The fold induction at 50 µM in assay [2] (planktonic S. aureus, cutoff for positive-scoring molecules 3-fold increase, read-out: AK-based Prestwick Library Screening Results, S. aureus (increase in extracellular AK activity)) was determined as 0.7.

On to `N=C(N)NCCN1CCCCCCC1` [Guanethidine sulfate], for which the fold induction at 50 µM with E. cloacae (setting [3]) was found to be 1.4; with E. faecium (setting [4]), 1.1; in the assay with E. coli (setting [5]), 1.4; with P. aeruginosa (setting [6]) it was 1.4; in assay [1] (setting [7]), 1.3; in the assay with K. pneumoniae (setting [8]) it was 1.1. Also, the fold induction at 50 µM in assay [2] (setting [9]) stood at 1.1.

Regarding `CCCCNC(=O)NS(=O)(=O)c1ccc(C)cc1` [Tolbutamide], the fold induction at 50 µM is 1 in the assay on E. cloacae (384-well format, cutoff for positive-scoring molecules 3-fold increase, read-out: AK-based Prestwick Library Screening Results, E. cloacae (increase in extracellular AK activity)); 1 with E. faecium (384-well format, cutoff for positive-scoring molecules 3-fold increase, read-out: AK-based Prestwick Library Screening Results, E. faecium (increase in extracellular AK activity)); 0.8 with E. coli (384-well format, cutoff for positive-scoring molecules 3-fold increase, read-out: AK-based Prestwick Library Screening Results, E. coli (increase in extracellular AK activity)); 0.9 with P. aeruginosa (384-well format, cutoff for positive-scoring molecules 3-fold increase, read-out: AK-based Prestwick Library Screening Results, P. aeruginosa (increase in extracellular AK activity)); 0.9 in assay [1] (384-well format, cutoff for positive-scoring molecules 3-fold increase, read-out: AK-based Prestwick Library Screening Results, A. baumannii (increase in extracellular AK activity)); 0.8 with K. pneumoniae (384-well format, cutoff for positive-scoring molecules 3-fold increase, read-out: AK-based Prestwick Library Screening Results, K. pneumoniae (increase in extracellular AK activity)). In addition, in assay [2] (384-well format, cutoff for positive-scoring molecules 3-fold increase, read-out: AK-based Prestwick Library Screening Results, S. aureus (increase in extracellular AK activity)), the fold induction at 50 µM turned out to be 0.7.

Regarding `CCCC(C)(COC(N)=O)COC(=O)NC(C)C` (stereo not shown) [Carisoprodol], the fold induction at 50 µM in the assay on E. cloacae (planktonic E. cloacae, […], read-out: AK-based Prestwick Library Screening Results, E. cloacae (increase in extracellular AK activity)) turned out to be 0.8; in the assay with E. faecium (planktonic E. faecium, […], read-out: AK-based Prestwick Library Screening Results, E. faecium (increase in extracellular AK activity)), 0.9; in the assay on E. coli (planktonic E. coli, […], read-out: AK-based Prestwick Library Screening Results, E. coli (increase in extracellular AK activity)), 0.9; in the assay on P. aeruginosa (planktonic P. aeruginosa, […], read-out: AK-based Prestwick Library Screening Results, P. aeruginosa (increase in extracellular AK activity)) it was 0.9; in assay [1] (planktonic A. baumannii, […], read-out: AK-based Prestwick Library Screening Results, A. baumannii (increase in extracellular AK activity)), 0.8; in the assay with K. pneumoniae (planktonic K. pneumoniae, […], read-out: AK-based Prestwick Library Screening Results, K. pneumoniae (increase in extracellular AK activity)) it was 0.6. Besides, the fold induction at 50 µM in assay [2] (planktonic S. aureus, […], read-out: AK-based Prestwick Library Screening Results, S. aureus (increase in extracellular AK activity)) came out at 0.7.

Regarding `NC(=NCc1ccccc1)NC(=O)c1nc(Cl)c(N)nc1N` [Benzamil hydrochloride], the fold induction at 50 µM in the assay on E. cloacae (planktonic, cutoff for positive-scoring molecules 3-fold increase, read-out: AK-based Prestwick Library Screening Results, E. cloacae (fold increase in extracellular AK activity)) was determined as 0.7; in the assay on E. faecium (planktonic, cutoff for positive-scoring molecules 3-fold increase, read-out: AK-based Prestwick Library Screening Results, E. faecium (fold increase in extracellular AK activity)), 1.1; in the assay with E. coli (planktonic, cutoff for positive-scoring molecules 3-fold increase, read-out: AK-based Prestwick Library Screening Results, E. coli (fold increase in extracellular AK activity)), 0.6; in the assay with P. aeruginosa (planktonic, cutoff for positive-scoring molecules 3-fold increase, read-out: AK-based Prestwick Library Screening Results, P. aeruginosa (fold increase in extracellular AK activity)), 0.6; in assay [1] (planktonic, cutoff for positive-scoring molecules 3-fold increase, read-out: AK-based Prestwick Library Screening Results, A. baumannii (fold increase in extracellular AK activity)), 0.6; with K. pneumoniae (planktonic, cutoff for positive-scoring molecules 3-fold increase, read-out: AK-based Prestwick Library Screening Results, K. pneumoniae (fold increase in extracellular AK activity)), 0.6. In assay [2] (planktonic, cutoff for positive-scoring molecules 3-fold increase, read-out: AK-based Prestwick Library Screening Results, S. aureus (fold increase in extracellular AK activity)), the fold induction at 50 µM worked out at 0.7.

Turning to `Cc1[nH]ccc2c1[nH]c1cc(=O)ccc12` [Harmol hydrochloride monohydrate], the fold induction at 50 µM in the assay with E. cloacae (planktonic, […], read-out: AK-based Prestwick Library Screening Results, E. cloacae (fold increase in extracellular AK activity)) came out at 1.6; in the assay with E. faecium (planktonic, […], read-out: AK-based Prestwick Library Screening Results, E. faecium (fold increase in extracellular AK activity)) it was 1; in the assay on E. coli (planktonic, […], read-out: AK-based Prestwick Library Screening Results, E. coli (fold increase in extracellular AK activity)), 1.4; in the assay on P. aeruginosa (planktonic, […], read-out: AK-based Prestwick Library Screening Results, P. aeruginosa (fold increase in extracellular AK activity)) it was 1.1; in assay [1] (planktonic, […], read-out: AK-based Prestwick Library Screening Results, A. baumannii (fold increase in extracellular AK activity)) it was 1.1; in the assay with K. pneumoniae (planktonic, […], read-out: AK-based Prestwick Library Screening Results, K. pneumoniae (fold increase in extracellular AK activity)), 0.9. Further, in assay [2] (planktonic, […], read-out: AK-based Prestwick Library Screening Results, S. aureus (fold increase in extracellular AK activity)), the fold induction at 50 µM was determined as 0.9.
